Measurements reported in article PMC2213507 (The Journal of Experimental Medicine, 2000).
Peptide text beside a SMILES is read from it.

Biological target: HLA-A*0201 (Homo sapiens, UniProt P04439, D140Y/D185E/D98H/E176V/E277Q/G131W/G231S/I119V/I121R/I166T/I218V/L300P/L318F/N151K/N90K/P208A/P217A/Q86G/Q94H/R138H/R169H/T345S)
Test: HLA-A*0201 peptide-binding assay

Structure (SMILES) | IC50
CC(C)C[C@H](NC(=O)[C@H](CO)NC(=O)[C@H](CCCNC(=N)N)NC(=O)[C@@H](NC(=O)[C@H](Cc1ccc(O)cc1)NC(=O)[C@H](COP(=O)(O)O)NC(=O)[C@H](CC(=O)O)NC(=O)[C@H](CC(C)C)NC(=O)CN)C(C)C)C(=O)O [GLDpSYVRSL] (HELM PEPTIDE1{G.L.D.[O=C([C@H](COP(=O)(O)O)N[*:1])[*:2]].Y.V.R.S.L}$$$$V2.0) | 0.058 µM
CC(C)C[C@H](NC(=O)[C@H](CO)NC(=O)[C@H](CCCNC(=N)N)NC(=O)[C@@H](NC(=O)[C@H](Cc1ccc(O)cc1)NC(=O)[C@@H](NC(=O)[C@H](CC(=O)O)NC(=O)[C@H](CC(C)C)NC(=O)CN)[C@@H](C)OP(=O)(O)O)C(C)C)C(=O)O [GLDpTYVRSL] (HELM PEPTIDE1{G.L.D.[C[C@@H](OP(=O)(O)O)[C@H](N[*:1])C(=O)[*:2]].Y.V.R.S.L}$$$$V2.0) | 0.067 µM
CC(C)C[C@H](NC(=O)[C@H](CO)NC(=O)[C@H](CCCNC(=N)N)NC(=O)[C@@H](NC(=O)[C@H](Cc1ccc(O)cc1)NC(=O)[C@H](Cc1ccc(OP(=O)(O)O)cc1)NC(=O)[C@H](CC(=O)O)NC(=O)[C@H](CC(C)C)NC(=O)CN)C(C)C)C(=O)O [GLDpYYVRSL] (HELM PEPTIDE1{G.L.D.[O=C([C@H](Cc1ccc(OP(=O)(O)O)cc1)N[*:1])[*:2]].Y.V.R.S.L}$$$$V2.0) | 0.211 µM
